# Measurements from patent publication US9856304B2, “Peptide and application thereof” (Saitama Medical University, priority 2013, dated 2018).
# Key:
# [1] = tested on: MIN6 cells (pancreatic β cell line); experiment: EdU cell proliferation assay, growth promotion of pancreatic β cells (3), versus Peptides A, B, C; assay type: cell-based; settings: betagenin 1 nM compared with Peptides A, C at 3 nM or 5 nM, FIG. 5
# Experimental: MIN6 cells provided by Dr. Miyazaki at Osaka University were used as a pancreatic β cell line. MIN6 cells were maintained in a DMEM culture medium with added 15% (v/v) of FBS.
# A DMSO solution was prepared so that the concentration of chemically synthesized betagenin was 97% of purity, as a pancreatic hormone-producing cell growth-promoting agent.
# Further, for comparison, Peptides A, B, C consisting of the amino acid sequences set forth in SEQ ID Nos: 4 to 6, respectively, were prepared by chemical synthesis.
# First, MIN6 cells were plated on a collagen-coated 8-well slide chamber (BD Falcon, Product Number 354630) at a cell density of 1×10^4 cells/well for confirming the growth promotion of pancreas β cells. After 24 hours, the culture medium was replaced with a DMEM culture medium with added 0.5% (v/v) of FBS, and then serum starvation was performed for 72 hours. Note that the culture medium was replaced with a fresh culture medium 48 hours after the start of serum starvation. […]
# The incorporated EdU was visualized as red fluorescence using Alexa Flour™ 594, and observed with a fluorescence microscope (Carl Zeiss). […] Note that a red fluorescence part representing a region where EdU was taken up will be confirmed as a dark black part due to the operations of black and white processing and black and white inversion.
# [2] = tested on: human iPS cells (253G1 cells); experiment: Differentiation induction of human iPS cells into pancreatic hormone-producing cells (2), quantitative RT-PCR; assay type: cell-based; settings: 1 nM betagenin in steps (A2) to (D2), vs ACN control, GAPDH corrected
# Experimental: As human iPS cells, used were 253G1 cells purchased from the cell bank at RIKEN. The cells were cultured/maintained in an ES cell culture medium (DMEM/ham F12, 20% KSR, nonessential amino acid, 2 mM L-glutamine, 0.1 mM 2-mercaptoethanol, 5.2 mM NaOH) with added 4 ng/mL FGF-2 (Global Stem) and penicillin/streptomycin (Nacalai Tesque, Inc.) along with SNL76/7 cells (DS Pharma Biomedical) treated with mitomycin-C. CTK (0.25% trypsin, 1 mg/mL Collagenase IV, 20% KSR, 1 mM CaCl2 in PBS) was used for cell detachment, and diluted at a ratio of 1:3 to 1:4 to perform passage culture.
# The cells were detached with trypsin-EDTA 3 days before the start of differentiation induction, and plated at a cell density of 6.3×10^4 cells/cm2, and cultured for 1 day in an ES cell culture medium with added 10 μM Y-27632 (Wako), 4 ng/mL FGF-2 and penicillin/streptomycin along with STO cells treated with mitomycin-C. Subsequently, they were further cultured for 2 days in an ES cell culture medium with added 4 ng/mL FGF-2 and penicillin/streptomycin.
# On the first day of the start of differentiation induction, the culture medium was replaced with a RPMI1640 culture medium (Nacalai Tesque, Inc.) with added 2% (v/v) FBS, 100 ng/mL activin A (SBI), 3 μM CHIR99021 (Axon Medchem) and 1 nM betagenin, and cultured for 1 day (Step (A2)). […]
# The gene expressions of insulin, glucagon, somatostatin were confirmed by quantitative RT-PCR for cells (n=3 for each of the betagenin addition group and the control group) obtained from 253G1 cells via the above steps (A2) to (D2). Specifically, total RNA was first extracted from the cells using a SV Total RNA Isolation System (Promega), and reverse transcription reactions were performed with BioScript™ transcriptase (Bioline), and then quantitative PCR analysis was performed with LightCycler™ (Roche) using SYBR™ Green PCR Master Mix (Applied Biosystems). Note that the gene expression of GAPDH was determined by quantitative RT-PCR as an internal control. […]
substance,measurement,setting,value
"betagenin: chemically synthesized peptide of SEQ ID NO: 1, fragment of human TM4SF20 from Position 170 to Position 229 (WRASSFHFDSEENKHRLIHFSVFLGLLLVGILEVLFGLSQIVIGFLGCLCGVSKRRSQIV; Peptide Sequence betagenin; listed as Homo sapiens)",EdU uptake in fluorescence microscope images (dark black parts),[1],significantly darker black parts
same,amount of expression of insulin (relative),"[2]; first day taken as 1, FIG. 6",increased
same,amount of expression of glucagon (relative),"[2]; first day taken as 1, FIG. 7",increased
same,amount of expression of somatostatin (relative),"[2]; first day taken as 1, FIG. 8",increased
